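Where inhibition never reached the appropriate level, the endpoint shown equals the highest concentration tested. Otherwise, values were interpolated linearly from a five-concentration, 48-hour dose response in 96-well plates. Abbreviation: GI50, concentration required for 50% inhibition of growth. TGI is the concentration that stops growth completely.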
What was measured:
Assay in all cases: inhibition of tumour cell growth, NCI panel, 48 h
OVCAR-3 ovarian = system: OVCAR-3 ovarian
SF-295 CNS = system: SF-295 CNS
ACHN renal = system: ACHN renal
SW-620 colon = system: SW-620 colon
DU-145 prostate = system: DU-145 prostate
SR leukemia = system: SR leukemia
TK-10 renal = system: TK-10 renal
SF-539 CNS = system: SF-539 CNS
HL-60(TB) leukemia = system: HL-60(TB) leukemia
HCT-116 colon = system: HCT-116 colon
MCF7 breast = system: MCF7 breast
SK-MEL-5 melanoma = system: SK-MEL-5 melanoma
RPMI-8226 leukemia = system: RPMI-8226 leukemia
HT29 colon = system: HT29 colon
OVCAR-5 ovarian = system: OVCAR-5 ovarian
BT-549 breast = system: BT-549 breast
EKVX NSCLC = system: EKVX NSCLC
COLO 205 colon = system: COLO 205 colon
MDA-MB-231 breast = system: MDA-MB-231 breast
SNB-19 CNS = system: SNB-19 CNS
NCI-H522 lung = system: NCI-H522 lung
786-0 renal = system: 786-0 renal
UACC-257 melanoma = system: UACC-257 melanoma
K-562 leukemia = system: K-562 leukemia
U251 CNS = system: U251 CNS
NCI/ADR-RES ovarian = system: NCI/ADR-RES ovarian
SN12C renal = system: SN12C renal
PC-3 prostate = system: PC-3 prostate
T-47D breast = system: T-47D breast
HOP-92 NSCLC = system: HOP-92 NSCLC
MALME-3M melanoma = system: MALME-3M melanoma
SK-MEL-2 melanoma = system: SK-MEL-2 melanoma
SF-268 CNS = system: SF-268 CNS
CAKI-1 renal = system: CAKI-1 renal
MOLT-4 leukemia = system: MOLT-4 leukemia
SK-OV-3 ovarian = system: SK-OV-3 ovarian
A549 NSCLC = system: A549 NSCLC
OVCAR-4 ovarian = system: OVCAR-4 ovarian
SK-MEL-28 melanoma = system: SK-MEL-28 melanoma
NCI-H226 lung = system: NCI-H226 lung
HCC-2998 colon = system: HCC-2998 colon
A498 renal = system: A498 renal
UACC-62 melanoma = system: UACC-62 melanoma
IGROV1 ovarian = system: IGROV1 ovarian
NCI-H460 lung = system: NCI-H460 lung
MDA-MB-435 = system: MDA-MB-435
KM12 colon = system: KM12 colon
HCT-15 colon = system: HCT-15 colon
CCRF-CEM leukemia = system: CCRF-CEM leukemia
HS 578T breast = system: HS 578T breast
OVCAR-8 ovarian = system: OVCAR-8 ovarian
HOP-62 NSCLC = system: HOP-62 NSCLC
SNB-75 CNS = system: SNB-75 CNS

In the case of `Fc1ccc(-c2cc3nc(C(Cl)Cl)nc(-c4ccc(Cl)cc4)n3n2)cc1`, the GI50 (OVCAR-3 ovarian) is reported as 2.02 µM, the TGI (OVCAR-3 ovarian) is reported as 4.5 µM and the GI50 (SF-295 CNS) is reported as 3.04 µM. The TGI (SF-295 CNS) was 9.71 µM, the GI50 (ACHN renal) was 1.6 µM and the TGI (ACHN renal) was 4.03 µM. It also gave a GI50 (SW-620 colon) of 2.91 µM, a TGI (SW-620 colon) greater than 100 µM and a GI50 (DU-145 prostate) of 1.91 µM. It also gave a TGI (DU-145 prostate) of 5.84 µM, a GI50 (SR leukemia) of 3.01 µM and a TGI (SR leukemia) greater than 100 µM. The GI50 (TK-10 renal) was 7.6 µM, the TGI (TK-10 renal) was greater than 100 µM and the GI50 (SF-539 CNS) was 11.3 µM. For the same compound, the TGI (SF-539 CNS) was greater than 100 µM, the GI50 (HL-60(TB) leukemia) was 2 µM and the TGI (HL-60(TB) leukemia) was greater than 100 µM. It also gave a GI50 (HCT-116 colon) of 3.3 µM, a TGI (HCT-116 colon) greater than 100 µM and a GI50 (MCF7 breast) of 2.45 µM. It also gave a TGI (MCF7 breast) greater than 100 µM, a GI50 (SK-MEL-5 melanoma) greater than 100 µM and a TGI (SK-MEL-5 melanoma) greater than 100 µM. For the same compound, the GI50 (RPMI-8226 leukemia) was 4.55 µM, the TGI (RPMI-8226 leukemia) was greater than 100 µM and the GI50 (HT29 colon) was 1.66 µM. It also gave a TGI (HT29 colon) of 5.36 µM, a GI50 (OVCAR-5 ovarian) of 3.92 µM and a TGI (OVCAR-5 ovarian) greater than 100 µM. It also gave a GI50 (BT-549 breast) of 94.7 µM, a TGI (BT-549 breast) greater than 100 µM and a GI50 (EKVX NSCLC) of 2.94 µM. It also gave a TGI (EKVX NSCLC) of 14.1 µM, a GI50 (COLO 205 colon) of 1.84 µM and a TGI (COLO 205 colon) of 4.05 µM. The GI50 (MDA-MB-231 breast) was 4.08 µM, the TGI (MDA-MB-231 breast) was greater than 100 µM and the GI50 (SNB-19 CNS) was 2.96 µM. It also gave a TGI (SNB-19 CNS) greater than 100 µM, a GI50 (NCI-H522 lung) of 3.72 µM and a TGI (NCI-H522 lung) greater than 100 µM. The GI50 (786-0 renal) was 23.5 µM, the TGI (786-0 renal) was greater than 100 µM and the GI50 (UACC-257 melanoma) was greater than 100 µM. It also gave a TGI (UACC-257 melanoma) greater than 100 µM, a GI50 (K-562 leukemia) of 4.39 µM and a TGI (K-562 leukemia) greater than 100 µM. For the same compound, the GI50 (U251 CNS) was 1.79 µM, the TGI (U251 CNS) was 4.36 µM and the GI50 (NCI/ADR-RES ovarian) was 3.32 µM. The TGI (NCI/ADR-RES ovarian) was greater than 100 µM, the GI50 (SN12C renal) was greater than 100 µM and the TGI (SN12C renal) was greater than 100 µM. For the same compound, the GI50 (PC-3 prostate) was 3.96 µM, the TGI (PC-3 prostate) was greater than 100 µM and the GI50 (T-47D breast) was 3.91 µM. For the same compound, the TGI (T-47D breast) was greater than 100 µM, the GI50 (HOP-92 NSCLC) was 4.66 µM and the TGI (HOP-92 NSCLC) was greater than 100 µM. The GI50 (MALME-3M melanoma) was greater than 100 µM, the TGI (MALME-3M melanoma) was greater than 100 µM and the GI50 (SK-MEL-2 melanoma) was greater than 100 µM. The TGI (SK-MEL-2 melanoma) was greater than 100 µM, the GI50 (SF-268 CNS) was 5.09 µM and the TGI (SF-268 CNS) was greater than 100 µM. For the same compound, the GI50 (CAKI-1 renal) was 2.96 µM, the TGI (CAKI-1 renal) was greater than 100 µM and the GI50 (MOLT-4 leukemia) was 4.25 µM. For the same compound, the TGI (MOLT-4 leukemia) was greater than 100 µM, the GI50 (SK-OV-3 ovarian) was 3.23 µM and the TGI (SK-OV-3 ovarian) was greater than 100 µM. It also gave a GI50 (A549 NSCLC) of 1.8 µM, a TGI (A549 NSCLC) of 4.53 µM and a GI50 (OVCAR-4 ovarian) of 3.11 µM. For the same compound, the TGI (OVCAR-4 ovarian) was greater than 100 µM, the GI50 (SK-MEL-28 melanoma) was 8.28 µM and the TGI (SK-MEL-28 melanoma) was greater than 100 µM. For the same compound, the GI50 (NCI-H226 lung) was greater than 100 µM, the TGI (NCI-H226 lung) was greater than 100 µM and the GI50 (HCC-2998 colon) was 1.54 µM. For the same compound, the TGI (HCC-2998 colon) was 3.14 µM, the GI50 (A498 renal) was 4.95 µM and the TGI (A498 renal) was 53.1 µM. It also gave a GI50 (UACC-62 melanoma) greater than 100 µM, a TGI (UACC-62 melanoma) greater than 100 µM and a GI50 (IGROV1 ovarian) greater than 100 µM. It also gave a TGI (IGROV1 ovarian) greater than 100 µM, a GI50 (NCI-H460 lung) of 1.76 µM and a TGI (NCI-H460 lung) of 4.69 µM. For the same compound, the GI50 (MDA-MB-435) was 6.6 µM, the TGI (MDA-MB-435) was greater than 100 µM and the GI50 (KM12 colon) was 3.01 µM. The TGI (KM12 colon) was greater than 100 µM, the GI50 (HCT-15 colon) was 2.5 µM and the TGI (HCT-15 colon) was greater than 100 µM. The GI50 (CCRF-CEM leukemia) was greater than 100 µM, the TGI (CCRF-CEM leukemia) was greater than 100 µM and the GI50 (HS 578T breast) was greater than 100 µM. It also gave a TGI (HS 578T breast) greater than 100 µM, a GI50 (OVCAR-8 ovarian) of 4.03 µM and a TGI (OVCAR-8 ovarian) greater than 100 µM. For the same compound, the GI50 (HOP-62 NSCLC) was 2.53 µM, the TGI (HOP-62 NSCLC) was greater than 100 µM and the GI50 (SNB-75 CNS) was greater than 100 µM. The TGI (SNB-75 CNS) was greater than 100 µM.

Source: PubChem BioAssay (NCI)
